Laboratory results published in patent publication US8192962B2, “Processes for detecting toxic substances” (Daikin Industries, Ltd., priority 2001, dated 2012).

Tested on: Genes belonging to other category
Assay: DNA chip mRNA expression in yeast, genes belonging to other category (Table 9)
Assay type: cell-based, Saccharomyces cerevisiae S288C
Description: Yeast (Saccharomyces cerevisiae S288C (α SUC2mal mel gap2 CUP1)) were incubated at 25° C. on YPD medium (yeast extract 1%, polypepton 2%, glucose 2%). One of toxic chemical substances was added to the cells at logarithmic growth phase, and the cells were further incubated for two hours. Cells were cultured without any chemical substance in the same condition, and were used as control. Concentrations of the chemical substances were defined to inhibit the growth of the yeast but not lead to death.
After completion of the incubation, the culture was centrifuged to collect the cells. To the cells, sodium acetate buffer (50 mM sodium acetate, 10 mM EDTA, 1% SDS) was added, and the mixture was shaken at 65° C. for five minutes, followed by returning to room temperature, and obtaining the supernatant, of which the procedures were repeated two times. To the supernatant, ½ amount of a solution of phenol/chloroform was added, and the mixture was centrifuged to give a supernatant, which was added with an equal amount of chloroform, and the mixture was centrifuged to give a supernatant. To the supernatant, an equal amount of isopropanol containing 0.3 M sodium acetate was added, and the mixture was allowed to stand at room temperature for 30 minutes, after which the mixture was centrifuged to give a sediment of the whole RNAs. Seventy % ethanol was added to the sediment, and the mixture was again centrifuged to give a sediment, which was then dried and dissolved in water. mRNA was isolated from the whole RNAs as followings. In view of the fact that a poly A chain is attached to the 3′ terminus of mRNA, a polynucleotide having a poly T structure which was immobilized on the surface of latex beads was used to trap the mRNA, and then the mRNA was washed and eluted with spine column (Oligotex-dT30<Super>mRNA Purification Kit, Takara). Reverse transcription of the mRNA was conducted with a reverse transcriptase (Super Script II Reverse Transcriptase; catalogue No. 18064-014, GibcoBRL) using fluorescence-labeled nucleotides to give cDNAs that were introduced with Cy3-dUTP or Cy5-dUTP during the reverse transcription.
The labeled cDNAs were dissolved in TE buffer (10mM Tris-HCl/1 mM EDTA, pH8.0), and the solution was dropped on the DNA chip containing the whole genes of yeast (DNA Chip Research Inc. Japan) so that the cDNAs were hybridized on the DNA chip at 65° C. for over 12 hours. The fluoresces intensity of the DNA chip was read with a scanner, and the ratio relative to the fluorescence intensity resulting from the absence of chemical substance was estimated as the following, which is shown in Tables 1 to 9: […]

## N#Cc1c(Cl)c(Cl)c(Cl)c(C#N)c1Cl [(9), 2,4,5,6-tetrachloro-1,3-benzenedicarbonitrile]
Yeast gene YAL055W
  The level of expressed mRNA in the presence of chemical substance/The level of expressed mRNA in the absence of chemical substance: 1.0
Yeast gene YAR010C
  The level of expressed mRNA in the presence of chemical substance/The level of expressed mRNA in the absence of chemical substance: 1.2
Yeast gene YBL005W-A
  The level of expressed mRNA in the presence of chemical substance/The level of expressed mRNA in the absence of chemical substance: 0.8
Yeast gene YBL041W
  The level of expressed mRNA in the presence of chemical substance/The level of expressed mRNA in the absence of chemical substance: 2.8
Yeast gene YBL043W
  The level of expressed mRNA in the presence of chemical substance/The level of expressed mRNA in the absence of chemical substance: 0.5
Yeast gene YBL078C
  The level of expressed mRNA in the presence of chemical substance/The level of expressed mRNA in the absence of chemical substance: 12.3
Yeast gene YBL102W
  The level of expressed mRNA in the presence of chemical substance/The level of expressed mRNA in the absence of chemical substance: 2.3
Yeast gene YBR046C
  The level of expressed mRNA in the presence of chemical substance/The level of expressed mRNA in the absence of chemical substance: 4.6
Yeast gene YBR139W
  The level of expressed mRNA in the presence of chemical substance/The level of expressed mRNA in the absence of chemical substance: 2.3
Yeast gene YBR177C
  The level of expressed mRNA in the presence of chemical substance/The level of expressed mRNA in the absence of chemical substance: 2.1
Yeast gene YBR212W
  The level of expressed mRNA in the presence of chemical substance/The level of expressed mRNA in the absence of chemical substance: 2.7
Yeast gene YBR214W
  The level of expressed mRNA in the presence of chemical substance/The level of expressed mRNA in the absence of chemical substance: 2.2
Yeast gene YCL020W
  The level of expressed mRNA in the presence of chemical substance/The level of expressed mRNA in the absence of chemical substance: 0.9
Yeast gene YCL027W
  The level of expressed mRNA in the presence of chemical substance/The level of expressed mRNA in the absence of chemical substance: 0.7
Yeast gene YCL033C
  The level of expressed mRNA in the presence of chemical substance/The level of expressed mRNA in the absence of chemical substance: 2.3
Yeast gene YCL067C
  The level of expressed mRNA in the presence of chemical substance/The level of expressed mRNA in the absence of chemical substance: 1.4
Yeast gene YCR004C
  The level of expressed mRNA in the presence of chemical substance/The level of expressed mRNA in the absence of chemical substance: 4.7
Yeast gene YCR062W
  The level of expressed mRNA in the presence of chemical substance/The level of expressed mRNA in the absence of chemical substance: 0.7
Yeast gene YCR071C
  The level of expressed mRNA in the presence of chemical substance/The level of expressed mRNA in the absence of chemical substance: 0.6
Yeast gene YCR088W
  The level of expressed mRNA in the presence of chemical substance/The level of expressed mRNA in the absence of chemical substance: 0.8
Yeast gene YDL007W
  The level of expressed mRNA in the presence of chemical substance/The level of expressed mRNA in the absence of chemical substance: 3.8
Yeast gene YDL008W
  The level of expressed mRNA in the presence of chemical substance/The level of expressed mRNA in the absence of chemical substance: 2.3
Yeast gene YDL018C
  The level of expressed mRNA in the presence of chemical substance/The level of expressed mRNA in the absence of chemical substance: 1.0
Yeast gene YDL065C
  The level of expressed mRNA in the presence of chemical substance/The level of expressed mRNA in the absence of chemical substance: 2.4
Yeast gene YDL197C
  The level of expressed mRNA in the presence of chemical substance/The level of expressed mRNA in the absence of chemical substance: 2.6
Yeast gene YDL229W
  The level of expressed mRNA in the presence of chemical substance/The level of expressed mRNA in the absence of chemical substance: 1.4
Yeast gene YDL230W
  The level of expressed mRNA in the presence of chemical substance/The level of expressed mRNA in the absence of chemical substance: 2.6
Yeast gene YDL238C
  The level of expressed mRNA in the presence of chemical substance/The level of expressed mRNA in the absence of chemical substance: 1.7
Yeast gene YDR055W
  The level of expressed mRNA in the presence of chemical substance/The level of expressed mRNA in the absence of chemical substance: 0.8
Yeast gene YDR084C
  The level of expressed mRNA in the presence of chemical substance/The level of expressed mRNA in the absence of chemical substance: 0.6
Yeast gene YDR085C
  The level of expressed mRNA in the presence of chemical substance/The level of expressed mRNA in the absence of chemical substance: 0.4
Yeast gene YDR099W
  The level of expressed mRNA in the presence of chemical substance/The level of expressed mRNA in the absence of chemical substance: 2.4
Yeast gene YDR104C
  The level of expressed mRNA in the presence of chemical substance/The level of expressed mRNA in the absence of chemical substance: 2.8
Yeast gene YDR115W
  The level of expressed mRNA in the presence of chemical substance/The level of expressed mRNA in the absence of chemical substance: 1.1
Yeast gene YDR125C
  The level of expressed mRNA in the presence of chemical substance/The level of expressed mRNA in the absence of chemical substance: 0.7
Yeast gene YDR188W
  The level of expressed mRNA in the presence of chemical substance/The level of expressed mRNA in the absence of chemical substance: 2.9
Yeast gene YDR257C
  The level of expressed mRNA in the presence of chemical substance/The level of expressed mRNA in the absence of chemical substance: 3.0
Yeast gene YDR259C
  The level of expressed mRNA in the presence of chemical substance/The level of expressed mRNA in the absence of chemical substance: 1.0
Yeast gene YDR315C
  The level of expressed mRNA in the presence of chemical substance/The level of expressed mRNA in the absence of chemical substance: 1.1
Yeast gene YDR358W
  The level of expressed mRNA in the presence of chemical substance/The level of expressed mRNA in the absence of chemical substance: 2.9
Yeast gene YDR388W
  The level of expressed mRNA in the presence of chemical substance/The level of expressed mRNA in the absence of chemical substance: 1.4
Yeast gene YDR427W
  The level of expressed mRNA in the presence of chemical substance/The level of expressed mRNA in the absence of chemical substance: 2.3
Yeast gene YDR432W
  The level of expressed mRNA in the presence of chemical substance/The level of expressed mRNA in the absence of chemical substance: 0.7
Yeast gene YDR481C
  The level of expressed mRNA in the presence of chemical substance/The level of expressed mRNA in the absence of chemical substance: 1.9
Yeast gene YDR506C
  The level of expressed mRNA in the presence of chemical substance/The level of expressed mRNA in the absence of chemical substance: 1.9
Yeast gene YDR510W
  The level of expressed mRNA in the presence of chemical substance/The level of expressed mRNA in the absence of chemical substance: 2.7
Yeast gene YDR515W
  The level of expressed mRNA in the presence of chemical substance/The level of expressed mRNA in the absence of chemical substance: 5.8
Yeast gene YEL042W
  The level of expressed mRNA in the presence of chemical substance/The level of expressed mRNA in the absence of chemical substance: 0.2
Yeast gene YEL052W
  The level of expressed mRNA in the presence of chemical substance/The level of expressed mRNA in the absence of chemical substance: 3.0
Yeast gene YEL066W
  The level of expressed mRNA in the presence of chemical substance/The level of expressed mRNA in the absence of chemical substance: 1.3
